Data published in ChEMBL document CHEMBL1201862, “PubChem BioAssay data set” (2004).
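Compound exposure: 48 hours, 5 concentrations, 96-well plates. Here, GI50 denotes the concentration required for 50% inhibition of growth.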 Activity calls are given as the source filed them. No stated cut-off is given here; in the data, active = GI50 up to about 1.1 µM and inactive = higher.

Experiments:
Test in all cases: NCI anticancer screen, dose series, 48 h
TK-10 = test system: TK-10
SK-MEL-28 = test system: SK-MEL-28
M14 = test system: M14
DMS-114 = test system: DMS-114
SW-620 = test system: SW-620
KM12 = test system: KM12
XF498 = test system: XF498
NCI-H522 = test system: NCI-H522
SR = test system: SR
M19-MEL = test system: M19-MEL
HL-60 = test system: HL-60
OVCAR-8 = test system: OVCAR-8
SK-MEL-5 = test system: SK-MEL-5
OVCAR-5 = test system: OVCAR-5
KM-20L2 = test system: KM-20L2
Malme-3M = test system: Malme-3M
SNB-19 = test system: SNB-19
SNB-75 = test system: SNB-75
IGROV-1 = test system: IGROV-1
RXF 393 = test system: RXF 393

Measured: GI50

Cc1ccc(/N=N/C(C2=NC(=O)CS2)c2nc3ccccc3[nH]2)cc1 (configuration not stated)
inactive: TK-10 > 100 µM | SK-MEL-28 > 100 µM | M14 > 100 µM | DMS-114 > 100 µM | SW-620 > 100 µM | KM12 > 100 µM | XF498 > 100 µM | NCI-H522 > 100 µM | SR > 100 µM | M19-MEL > 100 µM | HL-60 > 100 µM | OVCAR-8 > 100 µM | SK-MEL-5 > 100 µM | OVCAR-5 > 100 µM | KM-20L2 > 100 µM | Malme-3M > 100 µM | SNB-19 > 100 µM | SNB-75 59.2 µM | IGROV-1 > 100 µM

CN1CCC(C(=O)NNc2ccccc2)CC1
inactive: RXF 393 > 100 µM | TK-10 18.3 µM | SK-MEL-28 17.1 µM | M14 1.5 µM | DMS-114 9.31 µM | SW-620 7.98 µM | KM12 3.15 µM | XF498 > 100 µM | NCI-H522 3.27 µM | SR 7.43 µM | M19-MEL 13.9 µM | HL-60 2.65 µM | OVCAR-8 9.73 µM | SK-MEL-5 14.4 µM | OVCAR-5 8.3 µM | KM-20L2 1.69 µM | Malme-3M 22.4 µM | SNB-19 > 100 µM | SNB-75 > 80.2 µM | IGROV-1 > 36.6 µM

Cc1c2ccccc2c(CO)c2cc(F)c3ccccc3c12
inactive: RXF 393 24.7 µM | TK-10 37.4 µM | SK-MEL-28 44 µM | DMS-114 18.1 µM | SW-620 37.5 µM | KM12 18.8 µM | XF498 22.1 µM | NCI-H522 12.9 µM | SR 27 µM | M19-MEL 35.8 µM | HL-60 17.6 µM | OVCAR-8 19.6 µM | SK-MEL-5 43.9 µM | OVCAR-5 28 µM | KM-20L2 21.1 µM | Malme-3M 53.8 µM | SNB-19 30 µM | SNB-75 29.9 µM | IGROV-1 20.7 µM

CC1CC(c2ccc([N+](=O)[O-])cc2)=Nc2ccccc2[S+]1[O-] (configuration not stated)
inactive: RXF 393 11.1 µM | TK-10 27 µM | SK-MEL-28 20 µM | M14 18.1 µM | DMS-114 18.4 µM | SW-620 15.3 µM | KM12 13 µM | XF498 28.7 µM | NCI-H522 12.2 µM | SR 22.5 µM | M19-MEL 15.9 µM | HL-60 15.1 µM | OVCAR-8 15.5 µM | SK-MEL-5 15.5 µM | OVCAR-5 26.5 µM | KM-20L2 16.1 µM | SNB-19 18.2 µM | SNB-75 21.4 µM | IGROV-1 15.6 µM
